Key:
[1] = test system: Atto(pep)-Stop-POST5 (RFC-dependent termination); assay: Plate reader fluorescence anisotropy assay of pentapeptide release; assay type: biochemical, shrimp (Artemia salina); details: added ataluren 200-1,000 μM
Procedure: Plate reader assays were run in a Tecan F200® 96-well plate reader (Greiner® black, non-binding, chimney flat) equipped with 640 nm excitation and 700 nm polarization filters using 96-well plates. Atto(pep)-Stop-POST5 in Buffer 4 (0.1 μM, 80 μl) containing GTP (1 mM) was added to plate wells±ataluren at 25° C. eRF1 and eRF3 aliquots stored at −80° C. were thawed for 15 s at 37° C. and added directly to a premade ice-cold GTP (1 mM)±ataluren solution in Buffer 4. The resulting release factor solution was incubated at 25° C. for 1 min, and then added quickly in 80 μL portions to the Atto(pep)-Stop-POST5 containing wells with a multichannel pipette to the Atto(pep)-Stop-Posts wells. The final concentrations were: eRF1, 0.025-0.4 μM; eRF3, 0.8 μM; Atto(pep)-Stop-Posts, 0.05 μM. Fluorescence anisotropy decay graphs were fit with GraphPad Prism, using the one phase decay model to obtain peptide dissociation rates.
Ensemble fluorescence anisotropy results using Atto(pep)-Stop-POST5. The fluorescence anisotropy of the pentapeptidyl moiety of Atto(pep)-Stop-POST5 was quite high (0.22), and decreased following addition of RFC, providing a convenient measure of the rate of pentapeptide release from the ribosome. […] Each such time dependency could be fit to a single exponential, giving the collected rate constants presented in FIG. 9G, in which the rate dependence as a function of RFC concentration was measured at 0, 200, 500, and 1,000 μM ataluren. In the absence of ataluren, EC50 (0.029±0.002 μM) and Vmax (0.31±0.02) values were obtained for pentapeptide release similar to those measured by smTIRF. In addition, as with the smTIRF results, Vmax values were unaffected by added ataluren but EC50 values increased, reaching ˜0.06 μM at 1000 μM.

[2] = test system: rRNA fragments I-IV of 80S-IRES; assay: RNaseH fragment assay, 80S-IRES; assay type: binding, shrimp (Artemia salina); details: PAL, 300 μM AzAt, alone or plus competing ligand named as label
Procedure: RNaseH Fragment Assay. Total RNA was prepared from the ^3H-AzAt photoaffinity labeled ribosome by phenol-chloroform extraction. RNA: DNA duplexes were formed by incubating total RNA (0.2 μM) with an oligonucleotide pair (1 μM of each, sequences shown Table 1), flanking a specific RNA region, in 22.8 μL of water at 95° C. for 2 min, followed by annealing at 50° C. for 30 s and quenching on ice. Six units (1.2 μL) of RNase H (NEB) and 6 μl of 5×RNase H Reaction Buffer were next added to the RNA: DNA duplex and incubated at 37° C. for 1 hour, followed by phenol-chloroform extraction of RNA. The digested RNA was separated on 12% TBE-Urea PAGE gel, and the target band along with the adjacent upper and bottom gels were sliced by a 2 mm gel cutter. The gel slices were crushed and the ^3H labeled rRNA fragment was extracted in water by vigorously shaking at 70° C. for 30 min, or by overnight extraction in elution buffer (0.3M sodium acetate, 0.25% SDS, 1 mM EDTA). The slurry was removed by centrifugation and the eluted ^3H labeled rRNA in the supernatant was quantified. The stoichiometry of AzAt photoincorporation was calculated based on a gel recovery yield of 20±2%, determined using an authentic sample of [^3H]-Gln-tRNA^Gln.
Testing the functional pertinence of AzAt photolabeling of 18S A1195, 28S-A3093, 28S-A2672, and 28S-2669. An RNAse H fragment assay was employed to determine whether the potential functionally significant sites identified by LASER-seq correspond to ataluren binding sites relevant for termination activity. In this assay, oligonucleotide hybridization, RNase H digestion and polyacrylamide gel electrophoresis (PAGE) were used to determine the stoichiometry of [^3H]-AzAt photoincorporation into the three rRNA fragments that together include the four nucleotides of interest: Fragment I, 18S-A1195; Fragment II, 26S-A3093; Fragment III, 26S-A2669 and 26S-A2672 (Table 5). The separate addition of four potential competitors of AzAt binding (eRF1 alone, the stably bound eRF1.eRF3.GDPNP complex, ataluren, and the ataluren-like TRID GJ072) was used to test how these affected such photoincorporation. These experiments, the results of which are summarized in Table 5, were performed at two different AzAt concentrations. eRF1 and eRF1.eRF3.GDPNP effects were measured using 300 μM AzAt, paralleling the LASER-Seq PAL experiments.

Compound	effect on Vmax values [1]	Photoincorporation yields into 18S A1195/ I: 18S 1151-1206 ([2]; 80S-IRES)	Photoincorporation yields into 26S-A2669:A2672/ III: 26S 2638-2702 ([2]; 80S-IRES)	Photoincorporation yields into 26S-A3093/ II: 26S 3069-3113 ([2]; 80S-IRES)	Photoincorporation yields into RNAse H Fragment IV: 26S 1413-1476 ([2]; 80S.IRES)
O=C(O)c1cccc(-c2noc(-c3ccccc3F)n2)c1 [Ataluren]	unaffected				
[N-]=[N+]=Nc1ccc(-c2nc(-c3cccc(C(=O)O)c3)no2)cc1 [AzAt]		1.03 ± 0.33 mole %	1.01 ± 0.12 mole %	0.50 ± 0.09 mole %	0.29 ± 0.11%

From patent publication US20230235374A1, “High Throughput Assays for Detecting Translation Readthrough Inducers” (The Trustees of the University of Pennsylvania, priority 2021, published 2023)
